From the NIST ThermoML archive (doi:10.1021/je400122k)

Settings: Liquid; for speed of sound: Pulse-echo method; for mass density: Vibrating tube method

CCCCCCCCCCCCCCCC(=O)OC [methyl hexadecanoate]
Settings | mass density [kg/m3] | speed of sound [m/s]
313.15 K, 100 kPa | – | 1317.2
313.15 K, 101.3 kPa | 849.9 | –
313.15 K, 10000 kPa | 856.3 | 1365.4
313.15 K, 20000 kPa | 861.8 | 1411.5
313.15 K, 30000 kPa | 867.9 | 1454.4
313.15 K, 40000 kPa | 872.1 | 1494.8
313.15 K, 50000 kPa | 878.4 | –
323.15 K, 100 kPa | – | 1283.4
323.15 K, 101.3 kPa | 842.5 | –
323.15 K, 10000 kPa | 849 | 1333.7
323.15 K, 20000 kPa | 855.5 | 1381.1
323.15 K, 30000 kPa | 861.4 | 1425.2
323.15 K, 40000 kPa | 866.8 | 1467.4
323.15 K, 50000 kPa | 871.8 | 1506.9
333.15 K, 101.3 kPa | 835.2 | –
333.15 K, 10000 kPa | 842 | –
333.15 K, 20000 kPa | 848.7 | –
333.15 K, 30000 kPa | 854.9 | –
333.15 K, 40000 kPa | 860.4 | –
333.15 K, 50000 kPa | 866.7 | –
343.15 K, 100 kPa | – | 1215.3
343.15 K, 101.3 kPa | 827.8 | –
343.15 K, 10000 kPa | 835.1 | 1270.1
343.15 K, 20000 kPa | 842 | 1319.7
343.15 K, 30000 kPa | 848.5 | 1366.8
343.15 K, 40000 kPa | 854.4 | 1410.5
343.15 K, 50000 kPa | 859.6 | 1450.6
353.15 K, 101.3 kPa | 820.4 | –
353.15 K, 10000 kPa | 827.7 | –
353.15 K, 20000 kPa | 835.1 | –
353.15 K, 30000 kPa | 841.7 | –
353.15 K, 40000 kPa | 847.9 | –
353.15 K, 50000 kPa | 853.8 | –
363.15 K, 100 kPa | – | 1150.1
363.15 K, 101.3 kPa | 812.8 | –
363.15 K, 10000 kPa | 820.3 | 1208.9
363.15 K, 20000 kPa | 828 | 1262.5
363.15 K, 30000 kPa | 835 | 1311.1
363.15 K, 40000 kPa | 843.8 | 1355.7
363.15 K, 50000 kPa | 848.6 | 1400.9
373.15 K, 101.3 kPa | 804.6 | –
373.15 K, 10000 kPa | 813.8 | –
373.15 K, 20000 kPa | 821.7 | –
373.15 K, 30000 kPa | 829 | –
373.15 K, 40000 kPa | 835.7 | –
373.15 K, 50000 kPa | 841.9 | –
383.15 K, 100 kPa | – | 1087.2
383.15 K, 101.3 kPa | 797.4 | –
383.15 K, 10000 kPa | 806.8 | 1150.3
383.15 K, 20000 kPa | 815.1 | 1207.5
383.15 K, 30000 kPa | 822.7 | 1259.3
383.15 K, 40000 kPa | 829.6 | 1310.8
383.15 K, 50000 kPa | 836.5 | 1358.3
393.15 K, 100 kPa | – | 1056.9
393.15 K, 10000 kPa | – | 1121.2
393.15 K, 20000 kPa | – | 1180.4
393.15 K, 30000 kPa | – | 1234.2
393.15 K, 40000 kPa | – | 1284.7
393.15 K, 50000 kPa | – | 1334

CCCCCCCCCCCCCC(=O)OC [methyl tetradecanoate]
Settings | mass density [kg/m3] | speed of sound [m/s]
303.15 K, 100 kPa | – | 1335.8
303.15 K, 101.3 kPa | 859.7 | –
303.15 K, 10000 kPa | 866.3 | 1382.9
303.15 K, 20000 kPa | 872.4 | 1426.9
303.15 K, 30000 kPa | 878.2 | 1468.1
303.15 K, 40000 kPa | 883.7 | 1507.6
303.15 K, 50000 kPa | 888.9 | 1544.9
303.15 K, 60000 kPa | 893.8 | 1580.2
303.15 K, 70000 kPa | 898.5 | 1614.2
313.15 K, 101.3 kPa | 851.6 | –
313.15 K, 10000 kPa | 858.2 | –
313.15 K, 20000 kPa | 864.7 | –
313.15 K, 30000 kPa | 870.7 | –
313.15 K, 40000 kPa | 876.4 | –
313.15 K, 50000 kPa | 881.7 | –
313.15 K, 60000 kPa | 886.8 | –
313.15 K, 70000 kPa | 891.7 | –
313.15 K, 80000 kPa | 896.3 | –
323.15 K, 100 kPa | – | 1264
323.15 K, 101.3 kPa | 843.3 | –
323.15 K, 10000 kPa | 850.5 | 1316.4
323.15 K, 20000 kPa | 857.2 | 1364.8
323.15 K, 30000 kPa | 863.5 | 1409.6
323.15 K, 40000 kPa | 869.4 | 1451.9
323.15 K, 50000 kPa | 874.9 | 1492.5
323.15 K, 60000 kPa | 880.2 | 1530.5
323.15 K, 70000 kPa | 885.2 | 1566.8
323.15 K, 80000 kPa | 889.9 | 1601.2
333.15 K, 101.3 kPa | 835.2 | –
333.15 K, 10000 kPa | 843 | –
333.15 K, 20000 kPa | 850.1 | –
333.15 K, 30000 kPa | 856.6 | –
333.15 K, 40000 kPa | 862.7 | –
333.15 K, 50000 kPa | 868.4 | –
333.15 K, 60000 kPa | 873.8 | –
333.15 K, 70000 kPa | 879 | –
333.15 K, 80000 kPa | 883.9 | –
343.15 K, 100 kPa | – | 1195.7
343.15 K, 101.3 kPa | 827.9 | –
343.15 K, 10000 kPa | 835.7 | 1251.2
343.15 K, 20000 kPa | 843.1 | 1302.9
343.15 K, 30000 kPa | 849.8 | 1350.8
343.15 K, 40000 kPa | 856.2 | 1396
343.15 K, 50000 kPa | 862.1 | 1437.4
343.15 K, 60000 kPa | 867.7 | 1477.5
343.15 K, 70000 kPa | 873 | 1515
343.15 K, 80000 kPa | 878 | 1550.8
353.15 K, 101.3 kPa | 820.2 | –
353.15 K, 10000 kPa | 828.5 | –
353.15 K, 20000 kPa | 836.1 | –
353.15 K, 30000 kPa | 843.2 | –
353.15 K, 40000 kPa | 849.8 | –
353.15 K, 50000 kPa | 855.9 | –
353.15 K, 60000 kPa | 861.6 | –
353.15 K, 70000 kPa | 867.1 | –
353.15 K, 80000 kPa | 872.3 | –
363.15 K, 100 kPa | – | 1130.9
363.15 K, 101.3 kPa | 812.6 | –
363.15 K, 10000 kPa | 821.2 | 1190.4
363.15 K, 20000 kPa | 829.2 | 1245.2
363.15 K, 30000 kPa | 836.6 | 1295.9
363.15 K, 40000 kPa | 843.4 | 1342.5
363.15 K, 50000 kPa | 849.7 | 1385.7
363.15 K, 60000 kPa | 855.6 | 1426.7
363.15 K, 70000 kPa | 861.2 | 1465.5
363.15 K, 80000 kPa | 866.6 | 1502.6
373.15 K, 101.3 kPa | 804.6 | –
373.15 K, 10000 kPa | 813.9 | –
373.15 K, 20000 kPa | 822.2 | –
373.15 K, 30000 kPa | 829.9 | –
373.15 K, 40000 kPa | 836.9 | –
373.15 K, 50000 kPa | 843.5 | –
373.15 K, 60000 kPa | 849.6 | –
373.15 K, 70000 kPa | 855.3 | –
373.15 K, 80000 kPa | 860.8 | –
383.15 K, 100 kPa | – | 1066.7
383.15 K, 101.3 kPa | 796.4 | –
383.15 K, 10000 kPa | 806.3 | 1131.3
383.15 K, 20000 kPa | 815.1 | 1189.6
383.15 K, 30000 kPa | 823 | 1242.9
383.15 K, 40000 kPa | 830.3 | 1291.7
383.15 K, 50000 kPa | 837.1 | 1338
383.15 K, 60000 kPa | 843.4 | 1380.3
383.15 K, 70000 kPa | 849.3 | 1420.4
383.15 K, 80000 kPa | 854.9 | 1457.6
393.15 K, 100 kPa | – | 1036.2
393.15 K, 101.3 kPa | 788.5 | –
393.15 K, 10000 kPa | 798.6 | 1103.6
393.15 K, 20000 kPa | 807.7 | 1163.5
393.15 K, 30000 kPa | 815.9 | 1217.8
393.15 K, 40000 kPa | 823.5 | 1267.7
393.15 K, 50000 kPa | 830.5 | 1314.4
393.15 K, 60000 kPa | 837 | 1357.8
393.15 K, 70000 kPa | 843.1 | 1397.8
393.15 K, 80000 kPa | 848.8 | 1436.8
